Test results as given in patent publication US9695155B2, “Herbicidal substituted pyrimidinyloxy benzene compounds” (E. I. DU PONT DE NEMOURS AND COMPANY, priority 2013, dated 2017).

Experiments:
barnyardgrass [1] = assay: Test A postemergence; format: in vivo, Echinochloa crus-galli
How it was run: (§1)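 Scoring: eye-based comparison with untreated controls, 0 for no effect through 100 for complete control, at about day 10. Treatments: directed soil spray preemergence; foliar spray postemergence on 2–10 cm plants at the one- to two-leaf stage. Medium: loam soil with sand.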

barnyardgrass [2] = assay: Test A preemergence; format: in vivo, Echinochloa crus-galli; details: for Plant response rating, Barnyardgrass: 125 g ai/ha, 0 to 100 scale where 0 is no effect and 100 is complete control; for Barnyardgrass plant response rating: 500 g ai/ha, 0 to 100 scale, 0 no effect, 100 complete control, approx. 10 days
How it was run: as §1

sedge, umbrella = assay: Test B flooded paddy test; format: in vivo, Cyperus difformis; details: Flood, 250 g ai/ha; 0 to 100 scale where 0 is no effect and 100 is complete control
How it was run: (§2)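 Greenhouse flooded-pot test: compounds dosed into 3 cm standing water over 2-leaf plants, flood held constant. Rated visually after 13–15 days on 0–100 (complete control = 100); a dash marks no test result.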

corn [3] = assay: Test A preemergence; format: in vivo, Zea mays; details: for Plant response rating, Corn: 125 g ai/ha, 0 to 100 scale where 0 is no effect and 100 is complete control; for Corn plant response rating: 500 g ai/ha, 0 to 100 scale, 0 no effect, 100 complete control, approx. 10 days
How it was run: as §1

morningglory [4] = assay: Test A preemergence; format: in vivo, Ipomoea spp.; details: for Plant response rating, Morningglory: 125 g ai/ha, 0 to 100 scale where 0 is no effect and 100 is complete control; for Morningglory plant response rating: 500 g ai/ha, 0 to 100 scale, 0 no effect, 100 complete control, approx. 10 days
How it was run: as §1

giant foxtail [5] = assay: Test A postemergence; format: in vivo, Setaria faberii
How it was run: as §1

large (Lg) crabgrass [6] = assay: Test A postemergence; format: in vivo, Digitaria sanguinalis
How it was run: as §1

morningglory [7] = assay: Test A postemergence; format: in vivo, Ipomoea spp.
How it was run: as §1

giant foxtail [8] = assay: Test A preemergence; format: in vivo, Setaria faberii; details: for Plant response rating, Foxtail, Giant: 125 g ai/ha, 0 to 100 scale where 0 is no effect and 100 is complete control; for Foxtail, Giant plant response rating: 500 g ai/ha, 0 to 100 scale, 0 no effect, 100 complete control, approx. 10 days
How it was run: as §1

rice = assay: Test B flooded paddy test; format: in vivo, Oryza sativa; details: Flood, 250 g ai/ha; 0 to 100 scale where 0 is no effect and 100 is complete control
How it was run: as §2

velvetleaf [9] = assay: Test A postemergence; format: in vivo, Abutilon theophrasti
How it was run: as §1

wheat [10] = assay: Test A postemergence; format: in vivo, Triticum aestivum
How it was run: as §1

Heteranthera limosa = assay: Test B flooded paddy test; format: in vivo; details: Flood, 250 g ai/ha; 0 to 100 scale where 0 is no effect and 100 is complete control
How it was run: as §2

corn [11] = assay: Test A postemergence; format: in vivo, Zea mays
How it was run: as §1

pigweed [12] = assay: Test A preemergence; format: in vivo, Amaranthus retroflexus; details: for Plant response rating, Pigweed: 125 g ai/ha, 0 to 100 scale where 0 is no effect and 100 is complete control; for Pigweed plant response rating: 500 g ai/ha, 0 to 100 scale, 0 no effect, 100 complete control, approx. 10 days
How it was run: as §1

wheat [13] = assay: Test A preemergence; format: in vivo, Triticum aestivum; details: for Plant response rating, Wheat: 125 g ai/ha, 0 to 100 scale where 0 is no effect and 100 is complete control; for Wheat plant response rating: 500 g ai/ha, 0 to 100 scale, 0 no effect, 100 complete control, approx. 10 days
How it was run: as §1

velvetleaf [14] = assay: Test A preemergence; format: in vivo, Abutilon theophrasti; details: for Plant response rating, Velvetleaf: 125 g ai/ha, 0 to 100 scale where 0 is no effect and 100 is complete control; for Velvetleaf plant response rating: 500 g ai/ha, 0 to 100 scale, 0 no effect, 100 complete control, approx. 10 days
How it was run: as §1

pigweed [15] = assay: Test A postemergence; format: in vivo, Amaranthus retroflexus
How it was run: as §1

large (Lg) crabgrass [16] = assay: Test A preemergence; format: in vivo, Digitaria sanguinalis; details: for Plant response rating, Crabgrass, Large: 125 g ai/ha, 0 to 100 scale where 0 is no effect and 100 is complete control; for Crabgrass, Large plant response rating: 500 g ai/ha, 0 to 100 scale, 0 no effect, 100 complete control, approx. 10 days
How it was run: as §1

barnyardgrass [17] = assay: Test B flooded paddy test; format: in vivo, Echinochloa crus-galli; details: Flood, 250 g ai/ha; 0 to 100 scale where 0 is no effect and 100 is complete control
How it was run: as §2

[18] = 125 g ai/ha, 0 to 100 scale where 0 is no effect and 100 is complete control
[19] = 500 g ai/ha, 0 to 100 scale, 0 no effect, 100 complete control

Structure (SMILES)	Plant response rating, Barnyardgrass (barnyardgrass [1]; [18])	Plant response rating, Barnyardgrass (barnyardgrass [1]; [19])	Plant response rating, Barnyardgrass (barnyardgrass [2])	Barnyardgrass plant response rating (barnyardgrass [2])	Plant response rating, Sedge, Umbrella (sedge, umbrella)	Plant response rating, Corn (corn [3])	Corn plant response rating (corn [3])	Plant response rating, Morningglory (morningglory [4])	Morningglory plant response rating (morningglory [4])	Plant response rating, Foxtail, Giant (giant foxtail [5]; [18])	Plant response rating, Foxtail, Giant (giant foxtail [5]; [19])	Plant response rating, Crabgrass, Large (large (Lg) crabgrass [6]; [18])	Plant response rating, Crabgrass, Large (large (Lg) crabgrass [6]; [19])	Plant response rating, Morningglory (morningglory [7]; [18])	Plant response rating, Morningglory (morningglory [7]; [19])	Plant response rating, Foxtail, Giant (giant foxtail [8])	Foxtail, Giant plant response rating (giant foxtail [8])	Plant response rating, Rice (rice)	Plant response rating, Velvetleaf (velvetleaf [9]; [18])	Plant response rating, Velvetleaf (velvetleaf [9]; [19])	further results
FC(F)(F)c1ccn(-c2ccccc2Sc2ncc(Cl)cn2)n1 [Compound 28]	0	10	0	10	0	0	0	0	0	0	10	0	20	10	10	0	10	0	0	30	Plant response rating, Wheat (wheat [10]; [18]): 0; Plant response rating, Wheat (wheat [10]; [19]): 0; Plant response rating, Ducksalad (Heteranthera limosa): 35; Plant response rating, Corn (corn [11]; [18]): 0; Plant response rating, Corn (corn [11]; [19]): 20; Plant response rating, Pigweed (pigweed [12]): 0; Pigweed plant response rating (pigweed [12]): 40; Plant response rating, Wheat (wheat [13]): 0; Wheat plant response rating (wheat [13]): 0; Plant response rating, Velvetleaf (velvetleaf [14]): 0; Velvetleaf plant response rating (velvetleaf [14]): 0; Plant response rating, Pigweed (pigweed [15]; [18]): 10; Plant response rating, Pigweed (pigweed [15]; [19]): 30; Plant response rating, Crabgrass, Large (large (Lg) crabgrass [16]): 0; Crabgrass, Large plant response rating (large (Lg) crabgrass [16]): 10; Plant response rating, Barnyardgrass (barnyardgrass [17]): 0
CC(C)(C)c1ccn(-c2ccccc2Oc2ncc(Cl)cn2)n1 [Compound 29]	0	0	0	20	0	0	0	0	0	20	30	10	40	0	0	10	20	0	20	40	Plant response rating, Wheat (wheat [10]; [18]): 0; Plant response rating, Wheat (wheat [10]; [19]): 0; Plant response rating, Ducksalad (Heteranthera limosa): 0; Plant response rating, Corn (corn [11]; [18]): 0; Plant response rating, Corn (corn [11]; [19]): 0; Plant response rating, Pigweed (pigweed [12]): 0; Pigweed plant response rating (pigweed [12]): 0; Plant response rating, Wheat (wheat [13]): 0; Wheat plant response rating (wheat [13]): 0; Plant response rating, Velvetleaf (velvetleaf [14]): 0; Velvetleaf plant response rating (velvetleaf [14]): 40; Plant response rating, Pigweed (pigweed [15]; [18]): 20; Plant response rating, Pigweed (pigweed [15]; [19]): 50; Plant response rating, Crabgrass, Large (large (Lg) crabgrass [16]): 10; Crabgrass, Large plant response rating (large (Lg) crabgrass [16]): 40; Plant response rating, Barnyardgrass (barnyardgrass [17]): 0
CC(C)(C)c1ccn(-c2ccccc2Oc2ncc(Br)cn2)n1 [Compound 30]	10	10	0	10	0	0	0	0	0	10	10	30	40	0	0	0	30	0	20	30	Plant response rating, Wheat (wheat [10]; [18]): 0; Plant response rating, Wheat (wheat [10]; [19]): 0; Plant response rating, Ducksalad (Heteranthera limosa): 0; Plant response rating, Corn (corn [11]; [18]): 0; Plant response rating, Corn (corn [11]; [19]): 0; Plant response rating, Pigweed (pigweed [12]): 0; Pigweed plant response rating (pigweed [12]): 0; Plant response rating, Wheat (wheat [13]): 0; Wheat plant response rating (wheat [13]): 0; Plant response rating, Velvetleaf (velvetleaf [14]): 10; Velvetleaf plant response rating (velvetleaf [14]): 40; Plant response rating, Pigweed (pigweed [15]; [18]): 0; Plant response rating, Pigweed (pigweed [15]; [19]): 30; Plant response rating, Crabgrass, Large (large (Lg) crabgrass [16]): 40; Crabgrass, Large plant response rating (large (Lg) crabgrass [16]): 60; Plant response rating, Barnyardgrass (barnyardgrass [17]): 0
COc1ccc(Oc2ncc(Cl)cn2)c(-n2cc(Br)cn2)c1 [Compound 42]	0	0	0	10	0	0	0	0	0	0	30	10	50	20	40	10	20	15	60	70	Plant response rating, Wheat (wheat [10]; [18]): 0; Plant response rating, Wheat (wheat [10]; [19]): 0; Plant response rating, Ducksalad (Heteranthera limosa): 45; Plant response rating, Corn (corn [11]; [18]): 0; Plant response rating, Corn (corn [11]; [19]): 0; Plant response rating, Pigweed (pigweed [12]): 0; Pigweed plant response rating (pigweed [12]): 20; Plant response rating, Wheat (wheat [13]): 0; Wheat plant response rating (wheat [13]): 0; Plant response rating, Velvetleaf (velvetleaf [14]): 60; Velvetleaf plant response rating (velvetleaf [14]): 60; Plant response rating, Pigweed (pigweed [15]; [18]): 0; Plant response rating, Pigweed (pigweed [15]; [19]): 30; Plant response rating, Crabgrass, Large (large (Lg) crabgrass [16]): 10; Crabgrass, Large plant response rating (large (Lg) crabgrass [16]): 30; Plant response rating, Barnyardgrass (barnyardgrass [17]): 0
